This passage reports TGI and GI50 results from PubChem BioAssay (NCI).

“And” between values parts separate entries of the source, which are not always exact repeats. Identical values can stand only once.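 A five-concentration, 48-hour dose response in 96-well plates underlies each endpoint, interpolated linearly between surrounding concentrations. Here, GI50 denotes the concentration required for 50% inhibition of growth. TGI is the concentration that stops growth completely.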

Among the test systems are UO-31 renal; SW-620 colon; 786-0 renal; MDA-MB-231 breast; HOP-92 NSCLC; LOX IMVI melanoma; SF-268 CNS; A549 NSCLC; MOLT-4 leukemia; SR leukemia.
Assay in all cases: growth of human tumour cells (NCI), 48 h

Take `CCOP(=O)(OCC)/C(C#N)=C/c1nc[nH]c1C`: the TGI in the test with UO-31 renal, in the test with SW-620 colon, with 786-0 renal, with MDA-MB-231 breast, in the test with HOP-92 NSCLC and in the test with LOX IMVI melanoma was more than 100 µM in each case. In addition, the TGI in the test with SF-268 CNS, in the test on A549 NSCLC, with MOLT-4 leukemia and in the test on SR leukemia was more than 100 µM each time.
`O=C(CSc1nc2ccccc2c(=O)n1-c1ccccc1)N=Nc1c(O)[nH]c2ccc(Br)cc12`: the TGI with UO-31 renal is 6.64 µM; with SW-620 colon it was more than 51.2 µM; in the test on 786-0 renal, 4.33 µM; with MDA-MB-231 breast, 3.58 µM; with HOP-92 NSCLC, 7.76 µM; in the test on LOX IMVI melanoma, more than 31.5 µM. In addition, the TGI in the test with SF-268 CNS is more than 38.3 µM; in the test with A549 NSCLC, 10.9 µM; with MOLT-4 leukemia, more than 29.4 µM; in the test with SR leukemia, more than 26.6 µM.
For the molecule `CC(=O)N1N=C(c2ccccc2)NC(=O)C1c1cc(C)c(O)c(C)c1` (configuration not stated), the TGI was 48.9 µM in the test on UO-31 renal; more than 100 µM in the test with SW-620 colon; 31.7 µM with 786-0 renal; 46.3 µM in the test on MDA-MB-231 breast; 38.8 µM in the test with HOP-92 NSCLC; more than 100 µM in the test on LOX IMVI melanoma. For the same molecule, the TGI in the test with SF-268 CNS was 34.3 µM; in the test with A549 NSCLC, 66.1 µM; in the test on MOLT-4 leukemia, more than 100 µM; in the test on SR leukemia, more than 100 µM.
As to `C[C@]12CCC(=O)C=C1CC[C@@H]1[C@@H]2CC[C@]2(C)C(=O)/C(=C/c3ccc([N+](=O)[O-])cc3)C[C@@H]12`, the TGI in the test on UO-31 renal, with SW-620 colon, in the test on 786-0 renal, in the test on MDA-MB-231 breast, in the test on HOP-92 NSCLC and in the test with LOX IMVI melanoma was more than 100 µM in each case. The TGI in the test with SF-268 CNS, in the test on A549 NSCLC, in the test with MOLT-4 leukemia and with SR leukemia was more than 100 µM each time.
As for `Cn1c2ccccc2n2c(=O)c(-c3ccc(Cl)cc3)nnc12`, the TGI in the test with UO-31 renal, in the test on SW-620 colon, with 786-0 renal, in the test on MDA-MB-231 breast, in the test on HOP-92 NSCLC and in the test on LOX IMVI melanoma was more than 100 µM in each case. In addition, the TGI in the test with SF-268 CNS, in the test with A549 NSCLC, in the test on MOLT-4 leukemia and with SR leukemia was more than 100 µM in each case.
With `CCCCOC(=O)Nc1ccc(S(=O)(=O)Nc2c(Cl)cccc2Cl)cc1`, the TGI with UO-31 renal is 61.5 µM; in the test with SW-620 colon, 90.1 µM; in the test with 786-0 renal it was 79.5 µM; in the test with MDA-MB-231 breast it was 67.2 µM; with HOP-92 NSCLC, 75.7 µM; with LOX IMVI melanoma, more than 100 µM. The TGI with SF-268 CNS is more than 100 µM; in the test with A549 NSCLC, more than 100 µM; in the test on MOLT-4 leukemia, 88.4 µM; in the test with SR leukemia it was 48.7 µM.
Turning to `C/C(=N/NC(=S)N1CCCCCC1)c1cccc(/C(C)=N\NC(=S)N2CCCCCC2)n1`, the TGI with UO-31 renal is 3.39 µM; in the test on SW-620 colon, 3.55 µM; in the test on 786-0 renal it was 2.63 µM; in the test on MDA-MB-231 breast, 3.41 µM; in the test with HOP-92 NSCLC, 3.58 µM; in the test on LOX IMVI melanoma it was 3.41 µM. The TGI came out at 9.46 µM in the test on SF-268 CNS, 4.86 µM in the test on A549 NSCLC, 6.34 µM in the test on MOLT-4 leukemia and 5.84 µM in the test with SR leukemia.
Turning to `Cc1ccc2[nH]c3c(c2c1)C1CCC(C(C)(C)C)CC1C1C(=O)N(c2ccc(Oc4ccccc4)cc2)C(=O)C31` (configuration not stated), the TGI in the test with UO-31 renal is more than 100 µM; with SW-620 colon, more than 100 µM; in the test on 786-0 renal it was 28.3 µM; in the test with MDA-MB-231 breast it was more than 100 µM; in the test on HOP-92 NSCLC, 45.7 µM; in the test on LOX IMVI melanoma, more than 100 µM. The TGI in the test with SF-268 CNS was 41.6 µM; in the test with A549 NSCLC, more than 100 µM; in the test with MOLT-4 leukemia it was 7.92 µM; with SR leukemia, 3.07 µM.
In the case of `CC(C)(C)OC(=O)C1C(=O)NC(=O)CC1C(OCc1ccccc1)C(OCc1ccccc1)C(COCc1ccccc1)OCc1ccccc1` (configuration not stated), the GI50 in the test on UO-31 renal is 42.6 µM and 10.5 µM; with MDA-MB-231 breast, > 100 µM and 40.5 µM; in the test on HOP-92 NSCLC it was > 100 µM and 13.3 µM; in the test with LOX IMVI melanoma it was > 100 µM and 41.8 µM; with A549 NSCLC it was > 100 µM and 26.9 µM; in the test with MOLT-4 leukemia it was 66 µM and 9.83 µM. Moreover, the GI50 in the test on SR leukemia was > 100 µM and 35.1 µM. In addition, the TGI with UO-31 renal was > 100 µM and 30.3 µM; with SW-620 colon it was more than 100 µM; with 786-0 renal, more than 100 µM; with MDA-MB-231 breast it was more than 100 µM; with HOP-92 NSCLC, more than 100 µM; in the test with LOX IMVI melanoma, more than 100 µM. Also, the TGI with SF-268 CNS, in the test on A549 NSCLC, in the test on MOLT-4 leukemia and in the test with SR leukemia was more than 100 µM in each case.
With `Nc1nc(N)c2cc(-c3cc4ccccc4[nH]3)ccc2n1`, the TGI with UO-31 renal worked out at 32.9 µM; with SW-620 colon, 90.3 µM; in the test with 786-0 renal, 49.6 µM; in the test with MDA-MB-231 breast, 39.3 µM; in the test with HOP-92 NSCLC, 35.2 µM; with LOX IMVI melanoma, 36.3 µM. Also, the TGI was 95.5 µM in the test on SF-268 CNS, more than 100 µM in the test on A549 NSCLC, 53.1 µM in the test on MOLT-4 leukemia and 60.5 µM in the test on SR leukemia.
Turning to `C[C@]12CC[C@H]3[C@@H](CC=C4C[C@@H](N5CCCC5)CC[C@@]43C)[C@@H]1C/C(=C\c1ccc([N+](=O)[O-])cc1)[C@@H]2O`, the TGI was 28.4 µM in the test on UO-31 renal; 36.6 µM in the test on SW-620 colon; 17.9 µM in the test with 786-0 renal; 30.2 µM in the test on MDA-MB-231 breast; 27.7 µM with HOP-92 NSCLC; 30.9 µM in the test with LOX IMVI melanoma. The TGI stood at 40.1 µM in the test with SF-268 CNS, 32.6 µM in the test with A549 NSCLC, 4.99 µM with MOLT-4 leukemia and 3.98 µM in the test on SR leukemia.
For the molecule `O=C(O)CSC1=NCCN1`, the TGI with UO-31 renal, in the test on SW-620 colon, in the test on 786-0 renal, in the test with MDA-MB-231 breast, in the test with HOP-92 NSCLC and with LOX IMVI melanoma was more than 100 µM throughout. In addition, the TGI with SF-268 CNS, in the test on A549 NSCLC, in the test with MOLT-4 leukemia and in the test with SR leukemia was more than 100 µM throughout.
On to `Cc1ccc(S(=O)(=O)N(CC(O)COc2ccccc2)c2c(F)c(F)c(F)c(F)c2F)cc1` (configuration not stated), for which the TGI was determined as 25.1 µM with UO-31 renal; 36.2 µM with SW-620 colon; 38.8 µM in the test on 786-0 renal; 30.7 µM in the test with MDA-MB-231 breast; 21.7 µM with HOP-92 NSCLC; 28.6 µM in the test with LOX IMVI melanoma. Besides, the TGI in the test on SF-268 CNS is 30.9 µM; in the test on A549 NSCLC, 36.8 µM; in the test with MOLT-4 leukemia, 56.4 µM; with SR leukemia, 47.7 µM.
Consider `Cc1cc2c3c(c1)S(=O)(=O)c1cc(Cl)ccc1N3CCC2`, for which the TGI in the test on UO-31 renal, with SW-620 colon, in the test on 786-0 renal, with MDA-MB-231 breast, in the test with HOP-92 NSCLC and with LOX IMVI melanoma was more than 100 µM in each case. In addition, the TGI in the test on SF-268 CNS, in the test with A549 NSCLC, in the test on MOLT-4 leukemia and in the test on SR leukemia was more than 100 µM throughout.
`O=C1C(NS(=O)(=O)c2ccccc2)=C(n2ccnc2)C(=O)c2ccccc21`: the TGI in the test with UO-31 renal, in the test on SW-620 colon, in the test on 786-0 renal, in the test with MDA-MB-231 breast, in the test on HOP-92 NSCLC and with LOX IMVI melanoma was more than 100 µM each time. The TGI with SF-268 CNS, with A549 NSCLC, in the test with MOLT-4 leukemia and in the test with SR leukemia was more than 100 µM each time.
For the molecule `COc1ccc(Nc2nc3ccccc3nc2-c2cccs2)cc1OC`, the TGI in the test on UO-31 renal, in the test with SW-620 colon, in the test with 786-0 renal, in the test with MDA-MB-231 breast, with HOP-92 NSCLC and in the test with LOX IMVI melanoma was more than 10 µM each time. Further, the TGI in the test on SF-268 CNS, in the test on A549 NSCLC, with MOLT-4 leukemia and with SR leukemia was more than 10 µM throughout.
Turning to `COc1cc2c(c3nc4ccccc4nc13)-c1ccc(SC)c(=O)cc1[C@@H](NC(C)=O)CC2`, the TGI with UO-31 renal is more than 100 µM; with SW-620 colon, more than 100 µM; in the test on 786-0 renal, more than 100 µM; in the test on MDA-MB-231 breast, more than 100 µM; in the test on HOP-92 NSCLC, more than 75.1 µM; with LOX IMVI melanoma, more than 100 µM. For the same molecule, the TGI in the test with SF-268 CNS, in the test with A549 NSCLC, with MOLT-4 leukemia and in the test on SR leukemia was more than 100 µM in each case.
Turning to `CCN(CC)C1=Nc2ccccc2-n2ccnc2C1`, the TGI in the test with UO-31 renal, in the test with SW-620 colon, in the test on 786-0 renal, in the test on MDA-MB-231 breast, in the test on HOP-92 NSCLC and in the test on LOX IMVI melanoma was more than 100 µM throughout. The TGI with SF-268 CNS, with A549 NSCLC, in the test with MOLT-4 leukemia and in the test with SR leukemia was more than 100 µM each time.
`O=C1c2cccnc2S(=O)(=O)N1c1ccc(Br)cc1`: the TGI in the test with UO-31 renal, in the test on SW-620 colon, in the test with 786-0 renal, in the test with MDA-MB-231 breast, in the test on HOP-92 NSCLC and in the test with LOX IMVI melanoma was more than 100 µM in each case. In addition, the TGI in the test with SF-268 CNS, with A549 NSCLC, in the test with MOLT-4 leukemia and with SR leukemia was more than 100 µM each time.
In the case of `Cc1cccc(-c2cc(=O)c3cccnc3[nH]2)c1`, the TGI in the test with UO-31 renal, in the test on SW-620 colon, in the test on 786-0 renal, in the test with MDA-MB-231 breast, in the test on HOP-92 NSCLC and with LOX IMVI melanoma was more than 100 µM each time. The TGI in the test with SF-268 CNS, in the test on A549 NSCLC, with MOLT-4 leukemia and in the test on SR leukemia was more than 100 µM in each case.
